Tests used:
[1] = Absorption in a Caco-2 cells model; type: in vitro ADME; conditions: human
Description: (§1) Absorption of the compounds of formula (I) was tested in a Caco-2 cells model (Gastroenterology 1989, 96, 736): […]

[2] = tested on: ^14C-cholesterol absorption; assay: In vivo testing of cholesterol absorption inhibitors (A); design: species or system C57BL/6 female mice; conditions: procedure A, gavage, mice
Description: In vivo Testing of Cholesterol Absorption Inhibitors (A)
C57BL/6 female mice were maintained on regular chow diet and housed in individual cages to collect faeces. Mice were fasted for 3 hours and then gavaged with vehicle or compound. Half an hour later the mice were gavaged with radiolabelled cholesterol. Six hours after the ^14C-cholesterol gavage blood samples were taken via the tail and plasma prepared to determine how much cholesterol were absorbed. 24 hours after the gavage of ^14C-cholesterol the mice were bled and plasma were prepared for analysis. Faeces were collected for 24 hours to assess absorption efficiency.

Caco-2 cells = assay: Absorption in a Caco-2 cells model; type: in vitro ADME
Description: as §1

## O=C(COc1ccc([C@@H]2[C@@H](SCC(O)c3ccc(F)cc3)C(=O)N2c2ccc(F)cc2)cc1)NCC(=O)N[C@H](Cc1ccc(O)cc1)C(=O)O (stereo partly drawn) [Example 26, N-{[4-((2R,3R)-1-(4-fluorophenyl)-3-{[2-(4-fluorophenyl)-2-hydroxyethyl]thio}-4-oxoazetidin-2-yl)phenoxy]acetyl}glycyl-D-tyrosine]
[1]
  Papp: 0.07 ×10⁻⁶ cm/s

## CC(C)[C@@H](NC(=O)CNC(=O)COc1ccc([C@@H]2[C@@H](SCC(O)c3ccc(F)cc3)C(=O)N2c2ccc(F)cc2)cc1)C(=O)O (stereo partly drawn) [Example 23, N-{[4-((2R,3R)-1-(4-fluorophenyl)-3-{[2-(4-fluorophenyl)-2-hydroxyethyl]thio}-4-oxoazetidin-2-yl)phenoxy]acetyl}glycyl-D-valine]
[1]
  Papp: 0.06 ×10⁻⁶ cm/s

## O=C(COc1ccc([C@@H]2[C@@H](SCC(O)c3ccc(F)cc3)C(=O)N2c2ccc(F)cc2)cc1)N[C@@H](C(=O)N[C@@H](CO)C(=O)O)c1ccccc1 (stereo partly drawn) [Example 94, 1-(4-Fluorophenyl)-3-(R)-[2-(4-fluorophenyl)-2-hydroxyethylthio]-4-(R)-{4-[N-(α-(R)-{N-[2-(hydroxy)-1-(S)-(carboxy)ethyl]carbamoyl}benzyl)carbamoylmethoxy]phenyl}azetidin-2-one]
[2]; 5 μmol/kg
  inhibition of ^14C-cholesterol absorption: 89%

## O=C(COc1ccc([C@@H]2[C@@H](SCC(O)c3ccc(F)cc3)C(=O)N2c2ccc(F)cc2)cc1)NCC(=O)N[C@H](CO)C(=O)O (stereo partly drawn) [Example 96, 1-(4-Fluorophenyl)-3-(R)-[2-(4-fluorophenyl)-2-hydroxyethylthio]-4-(R)-{4-[N-{N-[2-(hydroxy)-1-(R)-(carboxy)ethyl]carbamoylmethyl}carbamoylmethoxy]phenyl}azetidin-2-one]
[2]; 5 μmol/kg
  inhibition of ^14C-cholesterol absorption: 87%

## O=C(COc1ccc([C@@H]2[C@@H](SCC(O)c3ccc(F)cc3)C(=O)N2c2ccc(F)cc2)cc1)NCC(=O)N[C@H](CC1CCCC1)C(=O)O (stereo partly drawn) [Example 85, N-{[4-((2R,3R)-1-(4-fluorophenyl)-3-{[2-(4-fluorophenyl)-2-hydroxyethyl]thio}-4-oxoazetidin-2-yl)phenoxy]acetyl}glycyl-3-cyclopentyl-D-alanine]
[2]; 0.2 μmol/kg
  inhibition of ^14C-cholesterol absorption: 47%

## O=C(COc1ccc([C@@H]2[C@@H](SCC(O)c3ccc(F)cc3)C(=O)N2c2ccc(F)cc2)cc1)NCC(=O)N[C@H](Cc1ccccc1)C(=O)O (stereo partly drawn) [Example 97, 1-(4-Fluorophenyl)-3-(R)-[2-(4-fluorophenyl)-2-hydroxyethylthio]-4-(R)-{4-[N-{N-[2-(phenyl)-1-(R)-(carboxy)ethyl]carbamoylmethyl}carbamoylmethoxy]phenyl}azetidin-2-one]
Caco-2 cells
  Caco value: 0.09 ×10⁻⁶ cm/s

## NCCC[C@@H](NC(=O)CNC(=O)COc1ccc([C@@H]2[C@@H](SCC(O)c3ccc(F)cc3)C(=O)N2c2ccc(F)cc2)cc1)C(=O)O (stereo partly drawn) [Example 91, N-{[4-((2R,3R)-1-(4-fluorophenyl)-3-{[2-(4-fluorophenyl)-2-hydroxyethyl]thio}-4-oxoazetidin-2-yl)phenoxy]acetyl}glycyl-D-ornithine]
[2]; 0.2 μmol/kg
  inhibition of ^14C-cholesterol absorption: 58%

## NCCCC[C@@H](NC(=O)CNC(=O)COc1ccc([C@@H]2[C@@H](SCC(O)c3ccc(F)cc3)C(=O)N2c2ccc(F)cc2)cc1)C(=O)O (some centres unmarked) [Example 29]
Caco-2 cells
  Caco value: 0.2 ×10⁻⁶ cm/s

From patent US7871998B2, “Diphenylazetidinone derivatives possessing cholesterol absorption inhibitory activity” (AstraZeneca AB, priority 2003, dated 2011)
